Key:
Format in all cases: in vivo
Nilaparvata lugens = experiment: Nilaparvata lugens, seedling dip method; settings: paddy seedling dip, third instar nymphs, 72 h after release, dead + moribund vs untreated control, read-out: percent mortality
Procedure: The seedling dip method was used for testing, wherein the required quantity of the compound was weighed and dissolved in a tube containing solvent solution. The tube was put on a vortex at 2000 rpm for 90 min for proper mixing, then diluted with 0.01% Triton-X solution to the desired test concentration.
Paddy seedlings were dipped in the compound solution for 10 seconds, shade dried for 20 min and then the seedlings were placed in glass test tubes with the roots kept in water. 15 third instar nymphs were released into each test tube and the tubes were kept in a plant growth chamber at a temperature of 25° C. and relative humidity of 75%. Observations on dead, moribund and alive nymphs were recorded 72 h after the release. Percent mortality was calculated by combining dead and moribund nymphs and comparing the result to the one of the untreated control.

Plutella xylostella = experiment: Plutella xylostella, leaf dip method; settings: foliar, cabbage leaf dip, second instar larvae, 72 h after release, dead + moribund vs untreated control, read-out: percent mortality
Outline: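 Cabbage leaves were dipped for 10 s in compound diluted with 0.01% Triton-X, shade dried and offered singly to second instar larvae. Trays were held at 25° C. and 70% relative humidity. Dead plus moribund larvae were scored at 72 h, and percent mortality was expressed relative to untreated control.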

Helicoverpa armigera = experiment: Helicoverpa armigera, diet incorporation method; settings: third instar larvae, 96 h after release, dead + moribund vs untreated control, read-out: percent mortality
Procedure: (§1) The diet incorporation method was used, in which the required quantity of the test compound was weighed and dissolved in a tube containing solvent solution. The tube was put on a vortex at 2000 rpm for 90 min for proper mixing. Semi-synthetic diet was incorporated into this solution when the temperature was approximately 50° C. in the bioassay containers. Compound and diet were stirred thoroughly for proper mixing and allowed to cool for 30 min. The solidified diet was cut into equal pieces, and then each piece was transferred into one cell of a bio-assay tray. A single starved third instar larva was released into each of the cells of the bioassay trays and the tray was covered with a lid. The bio-assay trays were then kept under laboratory conditions at a temperature of 25° C. and a relative humidity of 70%. Observations on dead, moribund and alive larvae were recorded 96 h after the release of the larvae. Percent mortality was calculated by combining dead and moribund larvae and comparing the result to the one of the untreated control.

Bemisia tabaci = experiment: Bemisia tabaci, leaf dip method; settings: foliar, brinjal leaf dip, whitefly adults, 72 h after release, dead + moribund vs untreated control, read-out: percent mortality
Procedure: The leaf dip method was used for testing, wherein the required quantity of the compound was weighed and dissolved in a tube containing solvent solution. The tube was put on a vortex at 2000 rpm for 90 min for proper mixing, then diluted with 0.01% Triton-X solution to get the desired test concentration. Brinjal leaves were dipped in the compound solution for 10 seconds; shade dried for 20 min and then placed, with the abaxial side of the leaf up, on 4 ml of a 1% agar-agar solution in respective perforated container caps. Known numbers of freshly emerged whitefly adults were collected, using a modified aspirator, and released into a perforated container in which the cap containing the treated leaf was placed. The containers were kept in a plant growth chamber at a temperature of 25° C. and relative humidity of 70%.
Observations on dead, moribund and alive adults were recorded 72 h after the release. Percent mortality was calculated by combining dead and moribund adults and comparing the result to the one of the untreated control. The compounds 55 87 and 198 were recorded ≥70 percent mortality @ 300 PPM.

Myzus persicae = experiment: Myzus persicae, leaf dip method; settings: foliar, capsicum leaf dip, third instar nymphs, 72 h after release, dead + moribund vs untreated control, read-out: percent mortality
Procedure: The leaf dip method was used for testing, wherein the required quantity of the compound was weighed and dissolved in a tube containing solvent solution. The tube was put on a vortex at 2000 rpm for 90 min for proper mixing, then diluted with 0.01% Triton-X solution to the desired test concentration. Capsicum leaves were dipped in the compound solution for 10 seconds, shade dried for 20 min and then placed, with the abaxial side of the leaf up, in single cells of a bio-assay tray containing 4 ml of a 1% agar-agar solution. Known numbers of third instar nymphs, collected in petri plates, were released into the cell with the treated leaf and the cell was covered with a perforated lid for better aeration. The trays were kept in a plant growth chamber at a temperature of 25° C. and a relative humidity of 70%. Observations on dead, moribund and alive nymphs were recorded 72 h after the release. Percent mortality was calculated by combining dead and moribund nymphs and comparing the result with the one of the untreated control.

Spodoptera litura = experiment: Spodoptera litura, diet incorporation method; settings: third instar larvae, 96 h after release, dead + moribund vs untreated control, read-out: percent mortality
Procedure: as §1, with “covered with the lid. The” for “covered with a lid. The”, “release of larvae. Percent” for “release of the larvae. Percent”

CCS(=O)(=O)c1ccc(N)nc1-c1ccn2nc(C(F)(F)F)cc2n1 [Compound 174, 5-(ethylsulfonyl)-6-(2-(trifluoromethyl)pyrazolo[1,5-a]pyrimidin-5-yl)pyridin-2-amine]
mortality at 300 ppm (Nilaparvata lugens): ≥ 70% | mortality at 300 ppm (Plutella xylostella): ≥ 70%

CCS(=O)(=O)c1ccc(N(C)C)nc1-c1ccn2nc(C(F)(F)F)cc2n1 [Compound 166, 5-(ethylsulfonyl)-N,N-dimethyl-6-(2-(trifluoromethyl)pyrazolo[1,5-a]pyrimidin-5-yl)pyridin-2-amine]
mortality at 300 ppm (Nilaparvata lugens): ≥ 70% | mortality at 300 ppm (Plutella xylostella): ≥ 70% | mortality at 300 ppm (Helicoverpa armigera): ≥ 70%

CCS(=O)(=O)c1ccc(-n2nccn2)nc1-c1cnc2cc(C(F)(F)F)nn2c1 [Compound 55, 6-(3-(ethylsulfonyl)-6-(2H-1,2,3-triazol-2-yl)pyridin-2-yl)-2-(trifluoromethyl)pyrazolo[1,5-a]pyrimidine]
mortality at 300 ppm (Bemisia tabaci): ≥ 70%

CCS(=O)(=O)c1ccc(NC)nc1-c1ccn2nc(C(F)(F)F)cc2n1 [Compound 167, 5-(ethylsulfonyl)-N-methyl-6-(2-(trifluoromethyl)pyrazolo[1,5-a]pyrimidin-5-yl)pyridin-2-amine]
mortality at 300 ppm (Nilaparvata lugens): ≥ 70% | mortality at 300 ppm (Plutella xylostella): ≥ 70% | mortality at 300 ppm (Myzus persicae): ≥ 70%

CCS(=O)(=O)c1ccc(NC2CC2)nc1-c1ccn2nc(C(F)(F)F)cc2n1 [Compound 141, N-cyclopropyl-5-(ethylsulfonyl)-6-(2-(trifluoromethyl)pyrazolo[1,5-a]pyrimidin-5-yl)pyridin-2-amine]
mortality at 300 ppm (Nilaparvata lugens): ≥ 70% | mortality at 300 ppm (Plutella xylostella): ≥ 70% | mortality at 300 ppm (Myzus persicae): ≥ 70%

CCS(=O)(=O)c1ccc(N(C)C2CC2)nc1-c1ccn2nc(C(F)(F)F)cc2n1 [Compound 168, N-cyclopropyl-5-(ethylsulfonyl)-N-methyl-6-(2-(trifluoromethyl)pyrazolo[1,5-a]pyrimidin-5-yl)pyridin-2-amine]
mortality at 300 ppm (Nilaparvata lugens): ≥ 70% | mortality at 300 ppm (Spodoptera litura): ≥ 70% | mortality at 300 ppm (Plutella xylostella): ≥ 70%

CCS(=O)(=O)c1ccc(-n2nccn2)nc1-c1ccn2nc(C(F)(F)F)cc2n1 [Compound 41, 5-(3-(ethylsulfonyl)-6-(2H-1,2,3-triazol-2-yl)pyridin-2-yl)-2-(trifluoromethyl)pyrazolo[1,5-a]pyrimidine]
mortality at 300 ppm (Nilaparvata lugens): ≥ 70% | mortality at 300 ppm (Plutella xylostella): ≥ 70% | mortality at 300 ppm (Helicoverpa armigera): ≥ 70%

CCS(=O)(=O)c1cc(-n2cnc(C)n2)cnc1-c1ncc2nc(C(F)(F)F)n(C)c2n1 [Compound 130, 2-(3-(ethylsulfonyl)-5-(3-methyl-1H-1,2,4-triazol-1-yl)pyridin-2-yl)-9-methyl-8-(trifluoromethyl)-9H-purine]
mortality at 300 ppm (Nilaparvata lugens): ≥ 70%

CCS(=O)(=O)c1ccc(C)nc1-c1ccn2nc(C(F)(F)F)cc2n1 [Compound 182, 5-(3-(ethylsulfonyl)-6-methylpyridin-2-yl)-2-(trifluoromethyl)pyrazolo[1,5-a]pyrimidine]
mortality at 300 ppm (Nilaparvata lugens): ≥ 70% | mortality at 300 ppm (Plutella xylostella): ≥ 70% | mortality at 300 ppm (Myzus persicae): ≥ 70%
